Values after ≈ are worked out from the molar mass of the structure shown. Read-outs that look alike come from different tables or passages of the source. Numbered stars: 1 amine (or outer) side, 2 acyl side, 3 side chain; on linkers, the order of the positions; unused ones are H or OH. Bridge positions count the residues as written; N and C are the ends. Square brackets hold non-standard residues; d marks the D form. Peptide text beside a SMILES is read from it. I, II: the chains in the order shown. Actinocin(9to1) = Cc1c2oc3c(C)ccc(C(=O)[*:1])c3nc-2c(C(=O)[*:2])c(N)c1=O; NMeV = CN[C@H](C(=O)O)C(C)C; Sar = CNCC(=O)O
Legend:
[1] = test system: MRSA USA300; experiment: Library hits: MIC/MBC against MRSA; assay type: cell-based, Staphylococcus aureus
[2] = test system: vancomycin resistant E. faecium ATCC 700221 (VRE); experiment: Library hits: MIC/MBC against VRE; assay type: cell-based
[3] = test system: K. pneumoniae ATCC BAA-1705; experiment: Library hits: MIC against K. pneumoniae; assay type: cell-based
[4] = test system: E. cloacae ATCC BAA-1143; experiment: Library hits: MIC against E. cloacae; assay type: cell-based
[5] = test system: P. aeruginosa ATCC 15442; experiment: Library hits: MIC against P. aeruginosa; assay type: cell-based
[6] = test system: A. baumannii ATCC BAA-1605; experiment: Library hits: MIC against A. baumannii; assay type: cell-based
[7] = test system: intracellular MRSA; experiment: Synergy with conventional antimicrobials in infected cell cultures; assay type: cell-based; settings: compared to monotherapy
[8] = test system: MRSA USA300; experiment: Mouse model of MRSA systemic infection (lethal); assay type: in vivo, BALB/c mice; settings: oral 25 mg/kg once daily, three doses
Text: For MRSA systemic infection, neutropenic Female BALB/c mice were inoculated IP with 1×10^9 MRSA USA300.

[9] = test system: MRSA USA300 persister cells tolerant to ciprofloxacin; experiment: Killing of S. aureus persister cells; assay type: cell-based; settings: added after ciprofloxacin treatment; 48 h
[10] = test system: E.. coli O157:H7; experiment: MIC against G-ve with and without colistin: E. coli O157:H7; assay type: cell-based; settings: E. coli O157:H7
[11] = test system: S. Typhimurium; experiment: MIC against G-ve with and without colistin: S. Typhimurium; assay type: cell-based
[12] = test system: K. pneumonia; experiment: MIC against G-ve with and without colistin: K. pneumonia; assay type: cell-based
[13] = test system: P. aeruginosa; experiment: MIC against G-ve with and without colistin: P. aeruginosa; assay type: cell-based
[14] = test system: A. baumannii; experiment: MIC against G-ve with and without colistin: A. baumannii; assay type: cell-based
[15] = Staphylococcus aureus, read-out: MBC
[16] = Staphylococcus aureus, read-out: MIC

Compound	MBC [1, 15] [µM]	MIC [1, 16] [µM]	MIC ([2]; VRE, read-out: MIC) [µM]	other results
O=c1[nH]cc(F)c(=O)[nH]1 [5-Fluorouracil]	16 (≈ 2.08 µg/mL)	4 (≈ 0.52 µg/mL)	> 16	
CCCCCCCCCOc1ccc2[nH]cc(CCN)c2c1 [5-Nonyloxytryptamine]				MIC/MBC [3]: >16 µM; MIC/MBC [4]: 16 µM (≈ 4.84 µg/mL); MIC/MBC [5]: >16 µM; MBC ([1]; Staphylococcus aureus): 8 µM (≈ 2.42 µg/mL); MIC ([1]; Staphylococcus aureus): 4 µM (≈ 1.21 µg/mL); MIC/MBC [6]: 16 µM (≈ 4.84 µg/mL); MIC [2]: 8 µM (≈ 2.42 µg/mL)
CC(=O)Nc1nnc(S(N)(=O)=O)s1 [Acetazolamide]		> 16	1 (≈ 0.222 µg/mL)	
c1ccc(-c2ccc(C(c3ccccc3)n3ccnc3)cc2)cc1 (stereo not drawn) [Bifonazole]	> 64	8 (≈ 2.48 µg/mL)	> 16	
CCCCCCNC(=O)n1cc(F)c(=O)[nH]c1=O [Carmofur]	4 (≈ 1.03 µg/mL)	2 (≈ 0.515 µg/mL)	> 16	
CCN(CC)CCOc1ccc(C(=C(Cl)c2ccccc2)c2ccccc2)cc1 [Clomid]	32 (≈ 13 µg/mL)	16 (≈ 6.5 µg/mL)	16 (≈ 6.5 µg/mL)	
Clc1ccccc1C(c1ccccc1)(c1ccccc1)n1ccnc1 [Clotrimazole]	64 (≈ 22.1 µg/mL)	4 (≈ 1.38 µg/mL)	> 16	
Cc1c2oc3c(C)ccc(C(=O)N[C@@H]4C(=O)N[C@H](C(C)C)C(=O)N5CCC[C@H]5C(=O)N(C)CC(=O)N(C)[C@@H](C(C)C)C(=O)O[C@@H]4C)c3nc-2c(C(=O)N[C@@H]2C(=O)N[C@H](C(C)C)C(=O)N3CCC[C@H]3C(=O)N(C)CC(=O)N(C)[C@@H](C(C)C)C(=O)O[C@@H]2C)c(N)c1=O [Dactinomycin] (I: T[dV]P[Sar][NMeV] / II: T[dV]P[Sar][NMeV]; ester I:1-I:C, II:1-II:C; linker I:N-II:N via Actinocin(9to1))				MIC ([1]; Staphylococcus aureus): > 16 µM; MIC [2]: 0.5 µM (≈ 0.628 µg/mL)
COc1cccc2c1C(=O)c1c(O)c3c(c(O)c1C2=O)C[C@@](O)(C(C)=O)C[C@@H]3O[C@H]1C[C@H](N)[C@H](O)[C@H](C)O1 [Daunorubicin]				MBC ([1]; Staphylococcus aureus): 16 µM (≈ 8.44 µg/mL); MIC ([1]; Staphylococcus aureus): 16 µM (≈ 8.44 µg/mL); MIC [2]: 8 µM (≈ 4.22 µg/mL)
Clc1ccc(COC(Cn2ccnc2)c2ccc(Cl)cc2Cl)cc1 (stereo not drawn) [Econazole]	32 (≈ 12.2 µg/mL)	4 (≈ 1.53 µg/mL)	> 16	
COc1cccc2c1C(=O)c1c(O)c3c(c(O)c1C2=O)C[C@@](O)(C(=O)CO)C[C@@H]3O[C@H]1C[C@H](N)[C@@H](O)[C@H](C)O1 [Epirubicin]	64 (≈ 34.8 µg/mL)	16 (≈ 8.7 µg/mL)	8 (≈ 4.35 µg/mL)	
O=c1[nH]c(=O)n(C2CCCO2)cc1F (stereo not drawn) [Ftorafur]		> 16	16 (≈ 3.2 µg/mL)	
NS(=O)(=O)c1cc(C(=O)O)c(NCc2ccco2)cc1Cl [Furosemide]		> 16	4 (≈ 1.32 µg/mL)	
CC(=O)[C@]1(O)Cc2c(O)c3c(c(O)c2[C@@H](O[C@H]2C[C@H](N)[C@H](O)[C@H](C)O2)C1)C(=O)c1ccccc1C3=O [Idarubicin]	4 (≈ 1.99 µg/mL)	4 (≈ 1.99 µg/mL)	4 (≈ 1.99 µg/mL)	
CC(C)NCC(O)c1ccc(O)c(O)c1 (stereo not drawn) [Isoproterenol]	64 (≈ 13.5 µg/mL)	16 (≈ 3.38 µg/mL)	> 16	
CC(C)c1ccc2c(c1)c(SC(C)(C)C)c(CC(C)(C)C(=O)O)n2Cc1ccc(Cl)cc1 [MK-886]			8 (≈ 3.78 µg/mL)	MBC ([1]; MRSA, read-out: MBC): 16 µM (≈ 7.55 µg/mL); MIC ([1]; MRSA, read-out: MIC): 8 µM (≈ 3.78 µg/mL)
Clc1ccc(COC(Cn2ccnc2)c2ccc(Cl)cc2Cl)c(Cl)c1 (stereo not drawn) [Miconazole]	8 (≈ 3.33 µg/mL)	4 (≈ 1.66 µg/mL)	> 16	
Clc1ccc(CO/N=C(\Cn2ccnc2)c2ccc(Cl)cc2Cl)c(Cl)c1 [Oxiconazole]	32 (≈ 13.7 µg/mL)			
Cc1nc2ccc(CN(C)c3ccc(C(=O)N[C@@H](CCC(=O)O)C(=O)O)s3)cc2c(=O)[nH]1 [Raltitrexed]		> 16	2 (≈ 0.917 µg/mL)	
CC/C(=C(\c1ccccc1)c1ccc(OCCN(C)C)cc1)c1ccccc1 [Tamoxifen]	16 (≈ 5.94 µg/mL)	16 (≈ 5.94 µg/mL)	> 16	
CN(C)CCOc1ccc(/C(=C(/CCCl)c2ccccc2)c2ccccc2)cc1 [Toremifene]	16 (≈ 6.5 µg/mL)	16 (≈ 6.5 µg/mL)	16 (≈ 6.5 µg/mL)	
CSc1nc2cc(Cl)c(Oc3cccc(Cl)c3Cl)cc2[nH]1 [Triclabendazole]	32 (≈ 11.5 µg/mL)	8 (≈ 2.88 µg/mL)	> 16	
CC[C@H]1OC(=O)[C@H](C)[C@@H](O[C@H]2C[C@@](C)(OC)[C@@H](O)[C@H](C)O2)[C@H](C)[C@@H](O[C@@H]2O[C@H](C)C[C@H](N(C)C)[C@H]2O)[C@](C)(O)C[C@@H](C)C(=O)[C@H](C)[C@@H](O)[C@]1(C)O [erythromycin]				activity when combined with Auranofin and Ebselen in infected cell cultures [7]: synergistic activity
CC(=O)NC[C@H]1CN(c2ccc(N3CCOCC3)c(F)c2)C(=O)O1 [linezolid]				mice survival [8]: significantly increased mice survival; effect on number of planktonic persister cells [9]: minimal impact
C=C[C@]1(C)C[C@@H](OC(=O)CS[C@@H]2C[C@H]3CC[C@@H](C2)N3C)[C@]2(C)[C@H](C)CC[C@]3(CCC(=O)[C@H]32)[C@@H](C)[C@@H]1O [retapamulin]				effect on number of planktonic persister cells [9]: minimal impact
colistin				MICs of colistin [10]: 0.25 µg/mL; MICs of colistin [11]: 1 µg/mL; MICs of colistin [12]: 0.25 µg/mL; MICs of colistin [13]: 0.5 µg/mL; MICs of colistin [14]: 0.25 µg/mL

Source: patent US10301664B2, “Repurposing non-antimicrobial drugs and clinical molecules to treat bacterial infections” (Purdue Research Foundation, priority 2015, dated 2019)
